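1) Cells in 96-well plates. 2) Compound, 48 h, 5 concentrations. 3) Linear interpolation between surrounding doses. 4) Unreached endpoint = highest concentration. GI50 = concentration required for 50% inhibition of growth. The concentration for full growth arrest is given as TGI.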
How the values were obtained:
Assay in all cases: NCI anticancer screen, dose series, 48 h
[1] = system: SF-268 CNS
[2] = system: RPMI-8226 leukemia
[3] = system: M14 melanoma
[4] = system: SW-620 colon
[5] = system: CCRF-CEM leukemia
[6] = system: LOX IMVI melanoma
[7] = system: EKVX NSCLC
[8] = system: BT-549 breast
[9] = system: PC-3 prostate
[10] = system: MCF7 breast

Structure (SMILES): CCCCCN(CCCCC)CC(O)c1cc(Cl)ccc1OC (stereo not drawn)
- GI50 [1]: 11.4 µM
- TGI [1]: 24.4 µM
- GI50 [2]: 4.81 µM
- TGI [2]: 22.7 µM
- GI50 [3]: 8.81 µM
- TGI [3]: 22.6 µM
- GI50 [4]: 4.66 µM
- TGI [4]: 18.2 µM
- GI50 [5]: 11.3 µM
- TGI [5]: 36 µM
- GI50 [6]: 5.23 µM
- TGI [6]: 18.4 µM
- GI50 [7]: 6.39 µM
- TGI [7]: 22.3 µM
- GI50 [8]: 15.9 µM
- TGI [8]: 38.3 µM
- GI50 [9]: 11.3 µM
- TGI [9]: 26.8 µM
- GI50 [10]: 0.528 µM
- TGI [10]: 2.66 µM

Structure (SMILES): Cc1ncc(C(=O)Nc2ccc(CN3CCN(C)CC3)c(C(F)(F)F)c2)cc1C#Cc1ccc(N)nc1
- GI50 [1]: 0.258 µM
- TGI [1]: 1.43 µM
- GI50 [2]: 0.237 µM
- TGI [2]: 1.58 µM
- GI50 [3]: 0.126 µM
- TGI [3]: 0.797 µM
- GI50 [4]: 0.244 µM
- TGI [4]: 1.36 µM
- GI50 [5]: 0.598 µM
- TGI [5]: 12.3 µM
- GI50 [6]: 0.131 µM
- TGI [6]: 0.496 µM
- GI50 [7]: 0.504 µM
- TGI [7]: 3.85 µM
- GI50 [8]: 1.2 µM
- TGI [8]: 4.09 µM
- GI50 [9]: 0.72 µM
- TGI [9]: 5.89 µM
- GI50 [10]: 0.903 µM
- TGI [10]: 4.89 µM

Structure (SMILES): NS(=O)(=O)c1ccc(N=Nc2c(O)[nH]c3ccc(C(=O)NCc4ccncc4)cc23)cc1
- GI50 [1]: > 25 µM
- TGI [1]: > 25 µM
- GI50 [2]: > 25 µM
- TGI [2]: > 25 µM
- GI50 [3]: > 25 µM
- TGI [3]: > 25 µM
- GI50 [4]: > 25 µM
- TGI [4]: > 25 µM
- GI50 [5]: > 25 µM
- TGI [5]: > 25 µM
- GI50 [6]: > 25 µM
- TGI [6]: > 25 µM
- GI50 [7]: > 25 µM
- TGI [7]: > 25 µM
- GI50 [8]: > 9.38 µM
- TGI [8]: > 25 µM
- GI50 [9]: > 25 µM
- TGI [9]: > 25 µM
- GI50 [10]: > 25 µM
- TGI [10]: > 25 µM

Structure (SMILES): CCCn1cnc2c(SCC(=O)O)nc(N)nc21
- TGI [1]: > 100 µM
- TGI [2]: > 100 µM
- TGI [3]: > 100 µM
- TGI [4]: > 100 µM
- TGI [5]: > 100 µM
- TGI [6]: > 100 µM
- TGI [7]: > 100 µM
- TGI [8]: > 100 µM
- TGI [9]: > 100 µM
- TGI [10]: > 100 µM

Structure (SMILES): [O-][N+]1(CC[N+]2([O-])CCCCC2)CCCCC1
- TGI [1]: > 100 µM
- TGI [2]: > 100 µM
- TGI [3]: > 100 µM
- TGI [4]: > 100 µM
- TGI [5]: > 100 µM
- TGI [6]: > 100 µM
- TGI [7]: > 100 µM
- TGI [8]: > 100 µM
- TGI [9]: > 100 µM
- TGI [10]: > 100 µM

Structure (SMILES): CCn1c(-c2cc3c([nH]c4ccccc43)c(-c3cccc(O)c3)n2)n[nH]c1=S
- GI50 [1]: 4.04 µM
- TGI [1]: 17.4 µM
- GI50 [2]: 2.5 µM
- TGI [2]: 8.78 µM
- GI50 [3]: 2.57 µM
- TGI [3]: 11.6 µM
- GI50 [4]: 4.15 µM
- TGI [4]: 18.9 µM
- GI50 [5]: 2.93 µM
- TGI [5]: 12.4 µM
- GI50 [6]: 2.93 µM
- TGI [6]: 12.7 µM
- GI50 [7]: 3.45 µM
- TGI [7]: 14.5 µM
- GI50 [8]: 3.51 µM
- TGI [8]: 25.9 µM
- GI50 [9]: 2.77 µM
- TGI [9]: 13.3 µM
- GI50 [10]: 2.79 µM
- TGI [10]: 14 µM

Structure (SMILES): Cc1ccc2nc(-c3ccc(OCC(=O)N=Nc4c(O)[nH]c5ccccc45)cc3)[nH]c2c1
- GI50 [1]: 3.54 µM
- TGI [1]: 14.4 µM
- GI50 [2]: 3.44 µM
- TGI [2]: 17.8 µM
- GI50 [3]: 5.43 µM
- TGI [3]: > 100 µM
- GI50 [4]: 2.02 µM
- TGI [4]: 4.32 µM
- GI50 [5]: 1.93 µM
- TGI [5]: 11.3 µM
- GI50 [6]: 1.83 µM
- TGI [6]: 3.52 µM
- GI50 [7]: 28 µM
- TGI [7]: > 100 µM
- GI50 [8]: 45.1 µM
- TGI [8]: > 100 µM
- GI50 [9]: 1.74 µM
- TGI [9]: 3.65 µM
- GI50 [10]: 1.85 µM
- TGI [10]: 3.96 µM

Structure (SMILES): C=C1C(=O)O[C@H]2[C@H]1CC/C(COC(=O)NCc1ccc(OC)cc1)=C\CC[C@@]1(C)O[C@@H]21
- GI50 [1]: 1.72 µM
- TGI [1]: 13.4 µM
- GI50 [2]: 0.683 µM
- TGI [2]: 2.3 µM
- GI50 [3]: 0.52 µM
- TGI [3]: 1.14 µM
- GI50 [4]: 0.635 µM
- TGI [4]: 1.55 µM
- GI50 [5]: 0.378 µM
- TGI [5]: 2.1 µM
- GI50 [6]: 0.405 µM
- TGI [6]: 1.47 µM
- GI50 [7]: 3.93 µM
- TGI [7]: 17.4 µM
- GI50 [8]: 0.696 µM
- TGI [8]: 2.07 µM
- GI50 [9]: 2.61 µM
- TGI [9]: 14.3 µM
- GI50 [10]: 1.31 µM
- TGI [10]: 5.45 µM

Structure (SMILES): CCN1CCN(c2cc(C)nc(N(CCCNc3ccnc4cc(Cl)ccc34)Cc3ccc4c(c3)OCO4)n2)CC1
- GI50 [1]: 2.57 µM
- TGI [1]: 7.9 µM
- GI50 [2]: 1.8 µM
- TGI [2]: 4.49 µM
- GI50 [3]: 1.89 µM
- TGI [3]: 3.5 µM
- GI50 [4]: 2.81 µM
- TGI [4]: 12.5 µM
- GI50 [5]: 2.38 µM
- TGI [5]: 7.43 µM
- GI50 [6]: 1.89 µM
- TGI [6]: 3.7 µM
- GI50 [7]: 4.56 µM
- TGI [7]: > 100 µM
- GI50 [8]: 2.72 µM
- TGI [8]: 8.5 µM
- GI50 [9]: 3.6 µM
- TGI [9]: > 100 µM
- GI50 [10]: 2.88 µM
- TGI [10]: 21.5 µM

Structure (SMILES): Cc1cc(C)c2c(n1)sc1c(N)ncnc12
- GI50 [1]: > 25 µM
- TGI [1]: > 25 µM
- GI50 [2]: > 25 µM
- TGI [2]: > 25 µM
- GI50 [3]: > 25 µM
- TGI [3]: > 25 µM
- GI50 [4]: > 25 µM
- TGI [4]: > 25 µM
- GI50 [5]: > 25 µM
- TGI [5]: > 25 µM
- GI50 [6]: > 25 µM
- TGI [6]: > 25 µM
- GI50 [8]: 11.3 µM
- TGI [8]: > 25 µM
- GI50 [9]: > 25 µM
- TGI [9]: > 25 µM
- GI50 [10]: > 25 µM
- TGI [10]: > 25 µM

Reference: PubChem BioAssay (NCI)
